Patent US20210346359A1, “Use of CFTR Modulators For Treating Cerebrovascular Conditions” (Qanatpharma AG, priority 2018, published 2021)
“Also recorded” adds a separate entry of the source.

Key:
CFTR mRNA = test: Quantitative PCR of CFTR mRNA in cerebral arteries of naïve mice treated in vivo; design: species or system mouse; details: 3 mg/kg daily for 2 days, vs vehicle controls
Text: Resistance artery RNA was isolated with Norgen Biotek (Thorold, Canada) “Total RNA Purification Micro” spin columns, using the proteinase K digestion and DNA removal procedures, as directed by the manufacturer's instructions. The eluted RNA was quantified with an Agilent Technologies RNA 6000 Pico Kit and Bioanalyzer; the analysis confirmed that high-quality RNA was retrieved from the artery tissue samples (RNA Integrity [RIN]: Cerebral=8.4±0.1, n=5; Cremaster=8.2±0.4, n=6). Isolation of RNA from Baby Hamster Kidney fibroblast cells followed the same procedure, with the omission of the proteinase K digestion step. […]
Quantitative FOR was performed using an Applied Biosystems ViiA™ 7 Real Time FCR system and Power SYBR® Green FCR master mix (both distributed by lnvitrogen Life Technologies). […] Gene targets were assessed in triplicate, using 1 ng of cDNA generated from the reverse transcription; negative controls received water. […] Transcript expression levels in mouse tissues were calculated from the DCt values relative to the standard housekeeping gene hydroxymethylbilane synthase (HMBS). To confirm that HMBS was reliable for normalization, transcript expression levels were also calculated from the DCt values relative to glucose-6-phosphate dehydrogenase (G6PD), which returned similar results. […]

[1] = tested on: mice with subarachnoid hemorrhage; test: Cleaved caspase-3 and Fluoro-Jade staining of cortical cells in subarachnoid hemorrhage mice; assay type: in vivo, mouse; details: 2 days post-SAH, 3 mg/kg daily for 2 days
Text: The development of delayed vasoconstriction and brain injury is more rapid in the experimental mouse SAH model (2-5 days post-SAH) (12,19-21), compared to what is observed clinically (4-12 days post-SAH) (22,23). […] At 2 days post-SAH induction, animals were anesthetized with isoflurane; their brains were perfused with phosphate buffered saline (PBS) and then perfusion fixed with phosphate-buffered paraformaldehyde (4%; pH 7.4), both via the ascending aorta. Brains were immediately dissected and cut into coronal sections 1 mm posterior to the bregma. These brain sections were post-fixed in 4% paraformaldehyde (pH 7.4) for 48 hours at 4° C. and then incubated in 10% sucrose (3 hours), followed by 30% sucrose overnight (at 4° C.) for cyroprotection. The brain sections were then embedded in OCT (Sakura Finetek USA; Torrance, USA) on isopentane and dry ice. Cryostat sections (5 μm thick coronal slices) were collected on “Tissue Path Superfrost Plus Gold” slides (Fisher Scientific; Whitby, Canada) and stored at −80° C. until used.
All samples were pre-treated with 10-minute proteinase (20 μg/ml; Promega; Madison, USA), followed by a standard 60-minute blocking procedure with either 10% normal donkey serum (Jackson immunoResearch Laboratories; West Grove, USA) in PBS or 10% goat serum (Invitrogen Life Technologies; Burlington, Canada) in PBS containing 1% bovine serum albumin. Brain slices were incubated with monoclonal rabbit anti-human active cleaved caspase-3 ([…] C92-605; 1:1000 dilution; BD Biosciences Canada; Mississauga Canada) and conjugated with Alexa Fluor 488 goat anti-rabbit IgG (Invitrogen). Both antibodies were diluted in Can Get Signal® immunoreaction enhancer solution and used an incubation time of 1 hour at room temperature. Specimens were washed and mounted with CC MountÔ.
Brain slices were serially incubated with 1% NaOH/80% ethanol (5 minutes), 70% ethanol (2 minutes), distilled water (2 minutes) and 0.06% potassium permanganate (10 minutes). After washing with deionized water, brain slices were stained with 0.0004% Fluoro-jade B (Histo-Chem Inc, Jefferson, USA) in 0.1% acetic acid (15 minutes). […]
Digital immunofluorescence images were acquired using a Zeiss LSM 710 confocal laser-scanning microscope in conjunction with Zeiss ZEN 2010 software (vessel images). […] Two independent assessors counted caspase-3 and Fluoro-Jade positive cells under blinded conditions, as previously described (12). For each animal, counts were obtained from the cortical region of a single coronal brain slice 1 mm posterior to the bregma (200× magnification), which includes the left and right temporal and parietal lobes The number of positive cells counted by each assessor was averaged, yielding a mean positive cell count/animal that was then used for statistical analyses.

Compound	cerebral artery CFTR mRNA expression (CFTR mRNA)	SAH-induced increase in Fluoro-Jade positive cortical cells [1]	SAH-induced increase in cleaved caspase-3 positive cortical cells [1]
O=C(Nc1ncc(C(c2ccccc2Cl)N2CCC(O)C2)s1)C1(c2ccc3c(c2)OCO3)CC1 (stereo not drawn) [C18, 1-(benzo[d][1,3]dioxol-5-yl)-N-(5-((2-chlorophenyl)(3-hydroxypyrrolidin-1-yl)methyl)thiazol-2-yl)cyclopropanecarboxamide]	not affected; also recorded: does not influence	dramatically attenuate; also recorded: abolish	dramatically attenuate; also recorded: abolish
Cc1ccc(NC(=O)C2(c3ccc4c(c3)OC(F)(F)O4)CC2)nc1-c1cccc(C(=O)O)c1 [lumacaftor]	unaffected; also recorded: does not influence	dramatically attenuate; also recorded: abolish	dramatically attenuate; also recorded: abolish
